Test results as given in patent US8575158B2, “1-phenyl-substituted heterocyclyl derivatives and their use as prostaglandin D2 receptor modulators” (Actelion Pharmaceuticals Ltd., priority 2010, dated 2013).

molecular target: T1, hCRTH2 receptor (Homo sapiens, UniProt Q9Y5Y4); experiment: Radioligand displacement assay (3H-PGD2) on hCRTH2 receptor membranes; assay type: binding; conditions: antagonistic activity; 3H-PGD2 displacement on HEK293-hCRTH2 membrane fragments
T1 construct: expressed in transfected cells; host or cells: HEK293
T1 sequence (Q9Y5Y4 1-395): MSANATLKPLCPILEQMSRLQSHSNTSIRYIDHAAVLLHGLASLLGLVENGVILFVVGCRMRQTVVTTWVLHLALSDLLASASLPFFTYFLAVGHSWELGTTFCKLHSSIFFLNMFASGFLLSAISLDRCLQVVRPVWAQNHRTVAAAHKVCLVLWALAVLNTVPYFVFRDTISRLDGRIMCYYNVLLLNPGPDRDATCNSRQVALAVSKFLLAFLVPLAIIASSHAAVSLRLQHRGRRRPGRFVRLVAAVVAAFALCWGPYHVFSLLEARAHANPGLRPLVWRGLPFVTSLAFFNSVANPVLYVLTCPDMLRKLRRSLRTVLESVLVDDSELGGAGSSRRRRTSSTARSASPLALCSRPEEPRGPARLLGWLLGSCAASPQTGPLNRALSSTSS
Experimental: First, recombinant HEK293-hCRTH2 cells were detached from culture plates into 5 ml buffer A/plate (Buffer A: 5 mM Tris, 1 mM MgCl2-6H2O pH=7.4) using a rubber policeman. Cells were then transferred into centrifugation tubes and centrifuged for 5 min at 400 g. The cell pellet was resuspended in the same buffer and tubes were frozen at −80° C. Cells were thawed and membrane fragments were generated by homogenization using a polytron homogenizer (30 seconds). The membrane fragments were then centrifuged at 3000 g for 20 minutes and resuspended in buffer C (Buffer C: 75 mM Tris, 25 mM MgCl2, 250 mM Saccharose pH 7.4). Aliquots of membrane fragments were stored at −20° C.
Binding assay was performed in a final assay volume of 250 μl. First, 25 μl of test compound, previously diluted in Binding-Buffer (Binding-Buffer: 50 mM Tris-Base, 100 mM NaCl, 1 mM EDTA, 0.1% BSA (protease free), 0.01% NaN3, 10 mM MnCl2, pH 7.0) was placed into each well. After addition of 75 μl Binding-Buffer, 50 μl of the radioligand ^3H-PGD2 (at 2.5 nM (220.000 dpm/well) from ANAWA ART0662) was added to each well. Binding assay was started by addition of 100 μl CRTH2 membrane fragments, reaching a final concentration of 20 μg/well. For non-specific binding, PGD2 was added to the reaction mixture to […] final concentration.
This assay mix was incubated for 90 minutes at room temperature and then filtered through a GF/C filter 96-well plate which was pre-soaked for 3 hours in 0.5% polyethyleneimine (PEI). The filter-wells were washed three times with ice cold Binding-Buffer. Then, 40 μl of Microscint-40 (Packard) was added to each well and the retained radioactivity quantified in a Topcount (Packard).

IC50 | SMILES
15.5 nM | O=C(O)COc1ccc(F)cc1C1c2ccccc2CCN1C(=O)[C@@H]1C[C@H]1c1ccccc1 (mixture of isomers) [Example 67, (±)-{4-Fluoro-2-[2-(trans-2-phenyl-cyclopropanecarbonyl)-1,2,3,4-tetrahydro-isoquinolin-1-yl]-phenoxy}-acetic acid]
508 nM | O=C(O)COc1ccc(Cl)cc1C1c2ccccc2CCN1C(=O)CC1CC1 (racemic) [Example 68, (±)-{4-Chloro-2-[2-(2-cyclopropyl-acetyl)-1,2,3,4-tetrahydro-isoquinolin-1-yl]-phenoxy}-acetic acid]
377 nM | O=C(O)COc1ccc(Cl)cc1C1c2ccccc2CCN1C(=O)C1=Cc2ccccc2OC1 (racemic) [Example 69, (±)-{4-Chloro-2-[2-(2H-chromene-3-carbonyl)-1,2,3,4-tetrahydro-isoquinolin-1-yl]-phenoxy}-acetic acid]
139 nM | COCCC(=O)N1CCc2ccccc2C1c1cc(Cl)ccc1OCC(=O)O (racemic) [Example 70, (±)-{4-Chloro-2-[2-(3-methoxy-propionyl)-1,2,3,4-tetrahydro-isoquinolin-1-yl]-phenoxy}-acetic acid]
291 nM | O=C(O)COc1ccc(Cl)cc1C1c2ccccc2CCN1C(=O)Cc1ccccc1Cl (racemic) [Example 71, (±)-(4-Chloro-2-{2-[2-(2-chloro-phenyl)-acetyl]-1,2,3,4-tetrahydro-isoquinolin-1-yl}-phenoxy)-acetic acid]
44 nM | O=C(O)COc1ccc(Cl)cc1C1c2ccccc2CCN1C(=O)Cn1ccc2ccccc21 (racemic) [Example 72, (±)-{4-Chloro-2-[2-(2-indol-1-yl-acetyl)-1,2,3,4-tetrahydro-isoquinolin-1-yl]-phenoxy}-acetic acid]
4.13 nM | Cc1[nH]c2ccccc2c1CCC(=O)N1CCc2ccccc2C1c1cc(Cl)ccc1OCC(=O)O (racemic) [Example 73, (±)-(4-Chloro-2-{2-[3-(2-methyl-1H-indol-3-yl)-propionyl]-1,2,3,4-tetrahydro-isoquinolin-1-yl}-phenoxy)-acetic acid]
1.42 nM | COc1ccc2[nH]cc(CCC(=O)N3CCc4ccccc4C3c3cc(Cl)ccc3OCC(=O)O)c2c1 (racemic) [Example 74, (±)-(4-Chloro-2-{2-[3-(5-methoxy-1H-indol-3-yl)-propionyl]-1,2,3,4-tetrahydro-isoquinolin-1-yl}-phenoxy)-acetic acid]
3.68 nM | Cc1ccc(OCC(=O)N2CCc3ccccc3C2c2cc(Cl)ccc2OCC(=O)O)c(C)n1 (racemic) [Example 75, (±)-(4-Chloro-2-{2-[2-(2,6-dimethyl-pyridin-3-yloxy)-acetyl]-1,2,3,4-tetrahydro-isoquinolin-1-yl}-phenoxy)-acetic acid]
4.46 nM | Cn1cc(CCC(=O)N2CCc3ccccc3C2c2cc(Cl)ccc2OCC(=O)O)c2ccccc21 (racemic) [Example 76, (±)-(4-Chloro-2-{2-[3-(1-methyl-1H-indol-3-yl)-propionyl]-1,2,3,4-tetrahydro-isoquinolin-1-yl}-phenoxy)-acetic acid]
51.1 nM | O=C(O)COc1ccc(Cl)cc1C1c2ccccc2CCN1C(=O)Cn1cnc2ccccc21 (racemic) [Example 78, (±)-{2-[2-(2-Benzoimidazol-1-yl-acetyl)-1,2,3,4-tetrahydro-isoquinolin-1-yl]-4-chloro-phenoxy}-acetic acid]
62.9 nM | O=C(O)COc1ccc(Cl)cc1C1c2ccccc2CCN1C(=O)CN1CCCc2ccccc21 (racemic) [Example 79, (±)-{4-Chloro-2-[2-(2-3,4-dihydro-2H-quinolin-1-yl-acetyl)-1,2,3,4-tetrahydro-isoquinolin-1-yl]-phenoxy}-acetic acid]
46.9 nM | O=C(O)COc1ccc(Cl)cc1C1c2ccccc2CCN1C(=O)Cn1cc2ccccc2n1 (racemic) [Example 80, (±)-{4-Chloro-2-[2-(2-indazol-2-yl-acetyl)-1,2,3,4-tetrahydro-isoquinolin-1-yl]-phenoxy}-acetic acid]
27.5 nM | O=C(O)COc1ccc(Cl)cc1C1c2ccccc2CCN1C(=O)CCc1cccc(C(F)(F)F)c1 (racemic) [Example 81, (±)-(4-Chloro-2-{2-[3-(3-trifluoromethyl-phenyl)-propionyl]-1,2,3,4-tetrahydro-isoquinolin-1-yl}-phenoxy)-acetic acid]
422 nM | O=C(O)COc1ccc(Cl)cc1C1c2ccccc2CCN1C(=O)CCc1nccn1-c1ccccc1 (racemic) [Example 83, (±)-(4-Chloro-2-{2-[3-(1-phenyl-1H-imidazol-2-yl)-propionyl]-1,2,3,4-tetrahydro-isoquinolin-1-yl}-phenoxy)-acetic acid]
18.9 nM | Cc1cccc(-n2cncc2CCC(=O)N2CCc3ccccc3C2c2cc(Cl)ccc2OCC(=O)O)c1C (racemic) [Example 85, (±)-[4-Chloro-2-(2-{3-[3-(2,3-dimethyl-phenyl)-3H-imidazol-4-yl]-propionyl}-1,2,3,4-tetrahydro-isoquinolin-1-yl)-phenoxy]-acetic acid]
422 nM | O=C(O)COc1ccc(Cl)cc1C1c2ccccc2CCN1C(=O)COc1ccccc1-c1ccccc1 (racemic) [Example 86, (±)-(2-{2-[2-(Biphenyl-2-yloxy)-acetyl]-1,2,3,4-tetrahydro-isoquinolin-1-yl}-4-chloro-phenoxy)-acetic acid]
17.8 nM | O=C(O)COc1ccc(Cl)cc1C1c2ccccc2CCN1C(=O)CCOc1cccc(F)c1 (racemic) [Example 87, (±)-(4-Chloro-2-{2-[3-(3-fluoro-phenoxy)-propionyl]-1,2,3,4-tetrahydro-isoquinolin-1-yl}-phenoxy)-acetic acid]
148 nM | Cc1ccc(OCCC(=O)N2CCc3ccccc3C2c2cc(Cl)ccc2OCC(=O)O)cc1 (racemic) [Example 88, (±)-{4-Chloro-2-[2-(3-p-tolyloxy-propionyl)-1,2,3,4-tetrahydro-isoquinolin-1-yl]-phenoxy}-acetic acid]
37.9 nM | O=C(O)COc1ccc(Cl)cc1C1c2ccccc2CCN1C(=O)CCOc1ccc(Cl)cc1 (racemic) [Example 89, (±)-(4-Chloro-2-{2-[3-(4-chloro-phenoxy)-propionyl]-1,2,3,4-tetrahydro-isoquinolin-1-yl}-phenoxy)-acetic acid]
45.8 nM | O=C(O)COc1ccc(Cl)cc1C1c2ccccc2CCN1C(=O)CCc1ccccc1C(F)(F)F (racemic) [Example 90, (±)-(4-Chloro-2-{2-[3-(2-trifluoromethyl-phenyl)-propionyl]-1,2,3,4-tetrahydro-isoquinolin-1-yl}-phenoxy)-acetic acid]
113 nM | O=C(O)COc1ccc(Cl)cc1C1c2ccccc2CCN1C(=O)Cc1c[nH]c2ccc(F)cc12 (racemic) [Example 91, (±)-(4-Chloro-2-{2-[2-(5-fluoro-1H-indol-3-yl)-acetyl]-1,2,3,4-tetrahydro-isoquinolin-1-yl}-phenoxy)-acetic acid]
2.86 nM | COc1ccc2c(CC(=O)N3CCc4ccccc4C3c3cc(Cl)ccc3OCC(=O)O)coc2c1 (racemic) [Example 92, (±)-(4-Chloro-2-{2-[2-(6-methoxy-benzofuran-3-yl)-acetyl]-1,2,3,4-tetrahydro-isoquinolin-1-yl}-phenoxy)-acetic acid]
12.9 nM | O=C(O)COc1ccc(Cl)cc1C1c2ccccc2CCN1C(=O)CCCc1ccc(Cl)cc1 (racemic) [Example 93, (±)-(4-Chloro-2-{2-[4-(4-chloro-phenyl)-butyryl]-1,2,3,4-tetrahydro-isoquinolin-1-yl}-phenoxy)-acetic acid]
16.2 nM | Cc1cccc(OCCC(=O)N2CCc3ccccc3C2c2cc(Cl)ccc2OCC(=O)O)c1 (racemic) [Example 94, (±)-{4-Chloro-2-[2-(3-m-tolyloxy-propionyl)-1,2,3,4-tetrahydro-isoquinolin-1-yl]-phenoxy}-acetic acid]
27.5 nM | O=C(O)COc1ccc(Cl)cc1C1c2ccccc2CCN1C(=O)CCOc1cccc(Cl)c1 (racemic) [Example 95, (±)-(4-Chloro-2-{2-[3-(3-chloro-phenoxy)-propionyl]-1,2,3,4-tetrahydro-isoquinolin-1-yl}-phenoxy)-acetic acid]
172 nM | O=C(O)COc1ccc(Cl)cc1C1c2ccccc2CCN1C(=O)Cc1c[nH]c2ccc(Cl)cc12 (racemic) [Example 96, (±)-(4-Chloro-2-{2-[2-(5-chloro-1H-indol-3-yl)-acetyl]-1,2,3,4-tetrahydro-isoquinolin-1-yl}-phenoxy)-acetic acid]
